Source: PubChem BioAssay (NCI)
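Growth conditions: 96-well plates. Treatment: test compound, 48 hours, 5 concentrations. Analysis: linear interpolation between bracketing concentrations; unreached endpoints set to highest concentration. Here, GI50 denotes the concentration required for 50% inhibition of growth. TGI marks complete inhibition of growth.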

Key:
Assay in all cases: growth of human tumour cells (NCI), 48 h
LOX IMVI melanoma = tested on: LOX IMVI melanoma
A498 renal = tested on: A498 renal
OVCAR-3 ovarian = tested on: OVCAR-3 ovarian
SNB-19 CNS = tested on: SNB-19 CNS
UACC-257 melanoma = tested on: UACC-257 melanoma
OVCAR-5 ovarian = tested on: OVCAR-5 ovarian
MOLT-4 leukemia = tested on: MOLT-4 leukemia
OVCAR-8 ovarian = tested on: OVCAR-8 ovarian
SW-620 colon = tested on: SW-620 colon
SF-539 CNS = tested on: SF-539 CNS
PC-3 prostate = tested on: PC-3 prostate
IGROV1 ovarian = tested on: IGROV1 ovarian

Molecule `O=c1[nH]nc(-c2ccccc2)n1/N=C/c1ccncc1` has a TGI (LOX IMVI melanoma) greater than 100 µM, a TGI (A498 renal) of 71.6 µM and a TGI (OVCAR-3 ovarian) greater than 100 µM. It also gave a TGI (SNB-19 CNS) greater than 100 µM, a TGI (UACC-257 melanoma) greater than 100 µM and a TGI (OVCAR-5 ovarian) greater than 100 µM. It also gave a TGI (MOLT-4 leukemia) greater than 100 µM, a TGI (OVCAR-8 ovarian) greater than 100 µM and a TGI (SW-620 colon) greater than 100 µM. It also gave a TGI (SF-539 CNS) greater than 100 µM, a TGI (PC-3 prostate) greater than 100 µM and a TGI (IGROV1 ovarian) greater than 100 µM.
In the case of `CC(=O)N1CCc2c([nH]c3ccc(Br)cc23)C1c1ccccc1` (stereo unspecified), the TGI (LOX IMVI melanoma) is reported as greater than 10 µM, the TGI (A498 renal) is reported as greater than 10 µM and the TGI (OVCAR-3 ovarian) is reported as greater than 10 µM. For the same molecule, the TGI (SNB-19 CNS) was greater than 10 µM, the TGI (UACC-257 melanoma) was greater than 10 µM and the TGI (OVCAR-5 ovarian) was greater than 10 µM. For the same molecule, the TGI (MOLT-4 leukemia) was greater than 10 µM, the TGI (OVCAR-8 ovarian) was greater than 10 µM and the TGI (SW-620 colon) was greater than 10 µM. It also gave a TGI (SF-539 CNS) greater than 10 µM, a TGI (PC-3 prostate) greater than 10 µM and a TGI (IGROV1 ovarian) greater than 10 µM.
For `COC(=O)C(C)(N=Cc1ccccc1)c1ccccc1` (stereo unspecified), the TGI (LOX IMVI melanoma) was greater than 100 µM, the TGI (A498 renal) was greater than 100 µM and the TGI (OVCAR-3 ovarian) was greater than 100 µM. For the same molecule, the TGI (SNB-19 CNS) was greater than 100 µM, the TGI (UACC-257 melanoma) was greater than 100 µM and the TGI (OVCAR-5 ovarian) was greater than 100 µM. It also gave a TGI (MOLT-4 leukemia) greater than 100 µM, a TGI (OVCAR-8 ovarian) greater than 100 µM and a TGI (SW-620 colon) greater than 100 µM. For the same molecule, the TGI (SF-539 CNS) was greater than 100 µM, the TGI (PC-3 prostate) was greater than 100 µM and the TGI (IGROV1 ovarian) was greater than 100 µM.
For `O=C(N=C1SCCN1C(=O)C(C(F)(F)F)C(F)(F)F)C(C(F)(F)F)C(F)(F)F`, the TGI (LOX IMVI melanoma) was greater than 100 µM, the TGI (A498 renal) was greater than 100 µM and the TGI (OVCAR-3 ovarian) was greater than 100 µM. For the same molecule, the TGI (SNB-19 CNS) was greater than 100 µM, the TGI (UACC-257 melanoma) was greater than 100 µM and the TGI (OVCAR-5 ovarian) was greater than 100 µM. It also gave a TGI (MOLT-4 leukemia) greater than 100 µM, a TGI (OVCAR-8 ovarian) greater than 100 µM and a TGI (SW-620 colon) greater than 100 µM. The TGI (SF-539 CNS) was greater than 100 µM, the TGI (PC-3 prostate) was greater than 100 µM and the TGI (IGROV1 ovarian) was greater than 100 µM.
`CCCCCCCCCCCCCCCCCCNc1ccn(C2OC(COP(=O)(O)OCC3CCC(n4cnc5c(=O)[nH]cnc54)O3)C(O)C2O)c(=O)n1` (stereo unspecified) gave a TGI (LOX IMVI melanoma) greater than 100 µM, a TGI (A498 renal) greater than 100 µM and a TGI (OVCAR-3 ovarian) greater than 100 µM. The TGI (SNB-19 CNS) was greater than 100 µM, the TGI (UACC-257 melanoma) was greater than 100 µM and the TGI (OVCAR-5 ovarian) was greater than 100 µM. The TGI (MOLT-4 leukemia) was greater than 100 µM, the TGI (OVCAR-8 ovarian) was greater than 100 µM and the TGI (SW-620 colon) was greater than 100 µM. For the same molecule, the TGI (SF-539 CNS) was greater than 100 µM, the TGI (PC-3 prostate) was 47.6 µM and the TGI (IGROV1 ovarian) was greater than 100 µM.
For `CCOC(=O)c1c(Br)c(-c2ccc(Br)cc2)c(Br)n1C`, the GI50 (LOX IMVI melanoma) was 14.3 µM, the TGI (LOX IMVI melanoma) was 30.4 µM and the TGI (A498 renal) was 44.2 µM. It also gave a TGI (OVCAR-3 ovarian) of 38.7 µM, a TGI (SNB-19 CNS) greater than 100 µM and a TGI (UACC-257 melanoma) of 78 µM. The TGI (OVCAR-5 ovarian) was 59.7 µM, the TGI (MOLT-4 leukemia) was 37.6 µM and the TGI (OVCAR-8 ovarian) was 87.1 µM. For the same molecule, the TGI (SW-620 colon) was greater than 100 µM, the TGI (SF-539 CNS) was 73.2 µM and the TGI (PC-3 prostate) was 71.1 µM. For the same molecule, the TGI (IGROV1 ovarian) was greater than 100 µM.
`COC(=O)C1=C(C)NC2(O)C=CC(=O)C3C(=O)N(c4ccccc4)C(=O)C132` (stereo unspecified) gave a TGI (LOX IMVI melanoma) greater than 100 µM, a TGI (A498 renal) greater than 100 µM and a TGI (OVCAR-3 ovarian) greater than 100 µM. It also gave a TGI (SNB-19 CNS) greater than 100 µM, a TGI (UACC-257 melanoma) greater than 100 µM and a TGI (OVCAR-5 ovarian) greater than 100 µM. It also gave a TGI (MOLT-4 leukemia) greater than 100 µM, a TGI (OVCAR-8 ovarian) greater than 100 µM and a TGI (SW-620 colon) greater than 100 µM. For the same molecule, the TGI (SF-539 CNS) was greater than 100 µM, the TGI (PC-3 prostate) was greater than 100 µM and the TGI (IGROV1 ovarian) was greater than 100 µM.
`Cc1cc(CNC(=O)OCc2ccccc2)c(C)c2c1Oc1ccccc1O2` showed a TGI (LOX IMVI melanoma) greater than 100 µM, a TGI (A498 renal) of 74.7 µM and a TGI (OVCAR-3 ovarian) greater than 100 µM. For the same molecule, the TGI (SNB-19 CNS) was greater than 92.9 µM, the TGI (UACC-257 melanoma) was greater than 100 µM and the TGI (OVCAR-5 ovarian) was greater than 100 µM. It also gave a TGI (MOLT-4 leukemia) greater than 100 µM, a TGI (OVCAR-8 ovarian) of 58.5 µM and a TGI (SW-620 colon) greater than 100 µM. It also gave a GI50 (SF-539 CNS) of 19.5 µM, a TGI (SF-539 CNS) of 47.9 µM and a TGI (PC-3 prostate) greater than 100 µM. For the same molecule, the TGI (IGROV1 ovarian) was greater than 100 µM.
With `NNc1nc2ccccc2c(=O)n1NC(=O)C(=O)Nc1cccc(C(F)(F)F)c1` the TGI (LOX IMVI melanoma) was greater than 100 µM, the TGI (A498 renal) was greater than 100 µM and the TGI (OVCAR-3 ovarian) was greater than 100 µM. It also gave a TGI (SNB-19 CNS) greater than 100 µM, a TGI (UACC-257 melanoma) greater than 100 µM and a TGI (OVCAR-5 ovarian) greater than 100 µM. For the same molecule, the TGI (MOLT-4 leukemia) was greater than 100 µM, the TGI (OVCAR-8 ovarian) was greater than 100 µM and the TGI (SW-620 colon) was greater than 100 µM. It also gave a TGI (SF-539 CNS) greater than 100 µM, a TGI (PC-3 prostate) greater than 100 µM and a TGI (IGROV1 ovarian) greater than 100 µM.
`C=CC1ON(Cc2ccccc2)CCc2cc(OC)c(OC)cc21` (stereo unspecified) was tested, and the TGI (LOX IMVI melanoma) was greater than 100 µM, the TGI (A498 renal) was 67.8 µM and the TGI (OVCAR-3 ovarian) was greater than 100 µM. It also gave a TGI (SNB-19 CNS) greater than 100 µM, a TGI (UACC-257 melanoma) greater than 100 µM and a TGI (OVCAR-5 ovarian) greater than 100 µM. For the same molecule, the TGI (MOLT-4 leukemia) was greater than 100 µM, the TGI (OVCAR-8 ovarian) was greater than 100 µM and the TGI (SW-620 colon) was greater than 100 µM. It also gave a TGI (SF-539 CNS) greater than 100 µM, a TGI (PC-3 prostate) greater than 100 µM and a TGI (IGROV1 ovarian) greater than 100 µM.
`Cn1ccn2c3nc4ccccc4nc3c(=O)c(C#N)c12` gave a TGI (LOX IMVI melanoma) greater than 100 µM, a TGI (A498 renal) greater than 100 µM and a TGI (OVCAR-3 ovarian) greater than 100 µM. For the same molecule, the TGI (SNB-19 CNS) was greater than 100 µM, the TGI (UACC-257 melanoma) was greater than 100 µM and the TGI (OVCAR-5 ovarian) was greater than 100 µM. It also gave a TGI (MOLT-4 leukemia) greater than 100 µM, a TGI (OVCAR-8 ovarian) greater than 100 µM and a TGI (SW-620 colon) greater than 100 µM. It also gave a TGI (SF-539 CNS) greater than 100 µM, a TGI (PC-3 prostate) greater than 100 µM and a TGI (IGROV1 ovarian) greater than 100 µM.
`Cc1ccc(S(=O)(=O)/N=C(\NN)Nc2ccc(Cl)cc2)cc1` was tested, and the TGI (LOX IMVI melanoma) was greater than 100 µM, the TGI (A498 renal) was greater than 100 µM and the TGI (OVCAR-3 ovarian) was greater than 100 µM. The TGI (SNB-19 CNS) was greater than 100 µM, the TGI (UACC-257 melanoma) was greater than 100 µM and the TGI (OVCAR-5 ovarian) was greater than 100 µM. For the same molecule, the TGI (MOLT-4 leukemia) was greater than 100 µM, the TGI (OVCAR-8 ovarian) was greater than 100 µM and the TGI (SW-620 colon) was greater than 100 µM. The TGI (SF-539 CNS) was greater than 100 µM, the TGI (PC-3 prostate) was greater than 100 µM and the TGI (IGROV1 ovarian) was greater than 100 µM.
